The first experiment relates to HT29 human colorectal adenocarcinoma cell line. The experiment can be described thus: cell proliferation assay (Cell Titer-Glo luminescent cell viability assay). The class given is cell-based. As to conditions: HT-29, 72 h, read-out: pIC50 (converted). The method, then: The cell culture and proliferation assay may be carried out as follows: the HT29 human colorectal adenocarcinoma cell line (ATCC, USA) was maintained in Dulbecco's Modified Eagle's Medium (Invitrogen, USA) supplemented with 10% fetal bovine serum (JRH, USA). The cell proliferation assay was carried out with the Cell Titer-Glo luminescent cell viability assay (Promega, USA) according to the manufacture's instruction after the 72 hr treatment of the cells in the presence of the compounds. The cell viability was shown as a percentage of DMSO treated cells.
A general note: In ATP-based viability assays light output follows the ATP content of the culture.
As to `COc1cc(C(=O)O)ccc1Nc1ncc2c(n1)N(C1CCCC1)CC(C)(C)C(=O)N2C` [Compound 85, 4-(9-Cyclopentyl-5,7,7-trimethyl-6-oxo-6,7,8,9-tetrahydro-5H-pyrimido[4,5-b][1,4]diazepin-2-ylamino)-3-methoxybenzoic Acid], the IC50 is 3.16 to 10 nM.

The same experiment, now with this note: HT-29, cell proliferative assay, HT29 cells, 72 hr treatment, values given as ranges, read-out: pIC50 (converted).
`C=C[C@@]1(C)CN(C2CCCC2)c2nc(Nc3ccc(C(=O)NN4CCN(C)CC4)cc3OC)ncc2N(C)C1=O` [Compound 244, (S)-4-(9-cyclopentyl-5,7-dimethyl-6-oxo-7-vinyl-6,7,8,9-tetrahydro-5H-pyrimido[4,5-b][1,4]diazepin-2-ylamino)-3-methoxy-N-(4-methylpiperazin-1-yl)benzamide]: the IC50 is greater than 10 nM. Still for that read-out and setting: as for `COc1cc(C(=O)NN2CCOCC2)ccc1Nc1ncc2c(n1)N(C1CCCC1)CC(C)(C)C(=O)N2C` [Compound 104, 4-(9-cyclopentyl-5,7,7-trimethyl-6-oxo-6,7,8,9-tetrahydro-5H-pyrimido[4,5-b][1,4]diazepin-2-ylamino)-3-methoxy-N-morpholinobenzamide], the figure is less than 1 nM; as for `CC[C@]1(C)CN(C2CCCCC2)c2nc(Nc3ccc(C(=O)N[C@H]4CCCNC4)cc3OC)ncc2N(C)C1=O` [Compound 151, 4-((R)-9-cyclohexyl-7-ethyl-5,7-dimethyl-6-oxo-6,7,8,9-tetrahydro-5H-pyrimido[4,5-b][1,4]diazepin-2-ylamino)-3-methoxy-N-((S)-piperidin-3-yl)benzamide], 3.16 to 10 nM; as for `CCC1(C)CN(C2CCCCC2)c2nc(Nc3ccc(C(=O)NC4CN(C)C4)cc3OC)ncc2N(C)C1=O` (centres unmarked) [Compound 140, 4-(9-cyclohexyl-7-ethyl-5,7-dimethyl-6-oxo-6,7,8,9-tetrahydro-5H-pyrimido[4,5-b][1,4]diazepin-2-ylamino)-3-methoxy-N-(1-methylazetidin-3-yl)benzamide], 3.16 to 10 nM. Same read-out and setting: next, `COc1cc(C(=O)N[C@@H]2CCCNC2)ccc1Nc1ncc2c(n1)N(C1CCCCC1)CC1(CC1)C(=O)N2C` [Compound 175, (R)-4-(9′-cyclohexyl-5′-methyl-6′-oxo-5′,6′,8′,9′-tetrahydrospiro [cyclopropane-1,7′-pyrimido[4,5-b][1,4]diazepine]-2′-ylamino)-3-methoxy-N-(piperidin-3-yl)benzamide]: less than 1 nM; `COc1cc(C(=O)NC2CCNCC2)ccc1Nc1ncc2c(n1)N(C1CCCCC1)CC(C)(C)C(=O)N2C` [Compound 116, 4-(9-cyclohexyl-5,7,7-trimethyl-6-oxo-6,7,8,9-tetrahydro-5H-pyrimido[4,5-b][1,4]diazepin-2-ylamino)-3-methoxy-N-(piperidin-4-yl)benzamide]: 3.16 to 10 nM.

`COc1cc(C(=O)NCC2CCN(C(=O)C3CC3)CC2)ccc1Nc1ncc2c(n1)N(C1CCCC1)CCC(=O)N2C` [Compound 76, 4-(9-cyclopentyl-5-methyl-6-oxo-6,7,8,9-tetrahydro-5H-pyrimido[4,5-b][1,4]diazepin-2-ylamino)-N-((1-(cyclopropanecarbonyl)piperidin-4-yl)methyl)-3-methoxybenzamide]: the IC50 was greater than 10 nM. The same measure, in the same setting: as for `COc1cc(C(=O)N[C@H]2CCCNC2)ccc1Nc1ncc2c(n1)N(C1CCCC1)CC1(CC1)C(=O)N2C` [Compound 166, (S)-4-(9′-cyclopentyl-5′-methyl-6′-oxo-5′,6′,8′,9′-tetrahydrospiro[cyclopropane-1,7′-pyrimido[4,5-b][1,4]diazepine]-2′-ylamino)-3-methoxy-N-(piperidin-3-yl)benzamide], the figure is 1 to 2.51 nM; as for `C#CCC1CN(C2CCCC2)c2nc(Nc3ccc(C(=O)NC4CCN(C)CC4)cc3OC)ncc2N(C)C1=O` (centres unmarked) [Compound 209], 1 to 2.51 nM.

Take `COc1cc(C(=O)NC2CN(C)C2)ccc1Nc1ncc2c(n1)N(C1CCCC1)CCC(=O)N2C` [Compound 47, 4-(9-cyclopentyl-5-methyl-6-oxo-6,7,8,9-tetrahydro-5H-pyrimido[4,5-b][1,4]diazepin-2-ylamino)-3-methoxy-N-(1-methylazetidin-3-yl)benzamide]: the IC50 is 3.16 to 10 nM. On the same count and under the same terms, next, `COc1cc(C(=O)NC2CN(C)C2)ccc1Nc1ncc2c(n1)N(C1CCCC1)CC(C)(C)C(=O)N2C` [Compound 95, 4-(9-cyclopentyl-5,7,7-trimethyl-6-oxo-6,7,8,9-tetrahydro-5H-pyrimido[4,5-b][1,4]diazepin-2-ylamino)-3-methoxy-N-(1-methylazetidin-3-yl)benzamide]: 1 to 2.51 nM. As to `C=CCC1CN(C2CCCCC2)c2nc(Nc3ccc(C(=O)NC4CN(C)C4)cc3OC)ncc2N(C)C1=O` (centres unmarked) [Compound 225, 4-(7-allyl-9-cyclohexyl-5-methyl-6-oxo-6,7,8,9-tetrahydro-5H-pyrimido[4,5-b][1,4]diazepin-2-ylamino)-3-methoxy-N-(1-methylazetidin-3-yl)benzamide], the IC50 was 3.16 to 10 nM.

As for `COc1cc(C(=O)NN2CCN(CCO)CC2)ccc1Nc1ncc2c(n1)N(C1CCCC1)CC(C)(C)C(=O)N2C` [Compound 105, 4-(9-cyclopentyl-5,7,7-trimethyl-6-oxo-6,7,8,9-tetrahydro-5H-pyrimido[4,5-b][1,4]diazepin-2-ylamino)-N-(4-(2-hydroxyethyl)piperazin-1-yl)-3-methoxybenzamide], the IC50 was 1 to 2.51 nM. The same measure, in the same setting: next, `COc1cc(C(=O)NCC2CCNCC2)ccc1Nc1ncc2c(n1)N(C1CCCC1)CCC(=O)N2C` [Compound 60, 4-(9-cyclopentyl-5-methyl-6-oxo-6,7,8,9-tetrahydro-5H-pyrimido[4,5-b][1,4]diazepin-2-ylamino)-3-methoxy-N-(piperidin-4-ylmethyl)benzamide]: greater than 10 nM; `CCOc1cc(C(=O)NC2CCN(C)CC2)ccc1Nc1ncc2c(n1)N(C1CCCC1)CC(C)(C)C(=O)N2C` [Compound 123, 4-(9-cyclopentyl-5,7,7-trimethyl-6-oxo-6,7,8,9-tetrahydro-5H-pyrimido[4,5-b][1,4]diazepin-2-ylamino)-3-ethoxy-N-(1-methylpiperidin-4-yl)benzamide]: less than 1 nM. Same read-out and setting: as for `COc1cc(C(=O)N[C@H]2CCCNC2)ccc1Nc1ncc2c(n1)N(C1CCCC1)CC1(CCC1)C(=O)N2C` [Compound 182, (S)-4-(9′-cyclopentyl-5′-methyl-6′-oxo-5′,6′,8′,9′-tetrahydrospiro[cyclobutane-1,7′-pyrimido[4,5-b][1,4]diazepine]-2′-ylamino)-3-methoxy-N-(piperidin-3-yl)benzamide], the figure is 1 to 2.51 nM; as for `COc1cc(C(=O)NC[C@H]2CCCN2)ccc1Nc1ncc2c(n1)N(C1CCCC1)CCC(=O)N2C` [Compound 62, (R)-4-(9-cyclopentyl-5-methyl-6-oxo-6,7,8,9-tetrahydro-5H-pyrimido[4,5-b][1,4]diazepin-2-ylamino)-3-methoxy-N-(pyrrolidin-2-ylmethyl)benzamide], greater than 10 nM; as for `COc1cc(C(=O)NC2CNC2)ccc1Nc1ncc2c(n1)N(C1CCCCC1)CC(C)(C)C(=O)N2C` [Compound 118, N-(azetidin-3-yl)-4-(9-cyclohexyl-5,7,7-trimethyl-6-oxo-6,7,8,9-tetrahydro-5H-pyrimido[4,5-b][1,4]diazepin-2-ylamino)-3-methoxybenzamide], 3.16 to 10 nM. Same read-out and setting: as for `CC[C@@]1(C)CN(C2CCCC2)c2nc(Nc3ccc(C(=O)N[C@@H]4CCCNC4)cc3OC)ncc2N(C)C1=O` [Compound 134, 4-((S)-9-cyclopentyl-7-ethyl-5,7-dimethyl-6-oxo-6,7,8,9-tetrahydro-5H-pyrimido[4,5-b][1,4]diazepin-2-ylamino)-3-methoxy-N-((R)-piperidin-3-yl)benzamide], the figure is 3.16 to 10 nM; as for `C=CC[C@H]1CN(C2CCCC2)c2nc(Nc3ccc(C(=O)N[C@H]4CCCNC4)cc3OC)ncc2N(C)C1=O` [Compound 201, 4-((S)-7-allyl-9-cyclopentyl-5-methyl-6-oxo-6,7,8,9-tetrahydro-5H-pyrimido[4,5-b][1,4]diazepin-2-ylamino)-3-methoxy-N-((S)-piperidin-3-yl)benzamide], 1 to 2.51 nM; as for `CONC(=O)c1ccc(Nc2ncc3c(n2)N(C2CCCC2)CC(C)(C)C(=O)N3C)c(OC)c1` [Compound 102, 4-(9-cyclopentyl-5,7,7-trimethyl-6-oxo-6,7,8,9-tetrahydro-5H-pyrimido[4,5-b][1,4]diazepin-2-ylamino)-N,3-dimethoxybenzamide], less than 1 nM. Regarding `COc1cc(C(=O)NCCN2CCCC2)ccc1Nc1ncc2c(n1)N(C1CCCC1)CC(C)(C)C(=O)N2C` [Compound 93, 4-(9-cyclopentyl-5,7,7-trimethyl-6-oxo-6,7,8,9-tetrahydro-5H-pyrimido[4,5-b][1,4]diazepin-2-ylamino)-3-methoxy-N-(2-(pyrrolidin-1-yl)ethyl)benzamide], the IC50 is 3.16 to 10 nM. On the same count and under the same terms, as for `C=CC[C@H]1CN(C2CCCC2)c2nc(Nc3ccc(C(=O)N[C@H]4CC[C@H](O)CC4)cc3OC)ncc2N(C)C1=O` [Compound 197, 4-((S)-7-allyl-9-cyclopentyl-5-methyl-6-oxo-6,7,8,9-tetrahydro-5H-pyrimido[4,5-b][1,4]diazepin-2-ylamino)-N-((1R,4R)-4-hydroxycyclohexyl)-3-methoxybenzamide], the figure is less than 1 nM.

Take `COc1cc(C(=O)NC2CCOCC2)ccc1Nc1ncc2c(n1)N(C1CCCC1)CCC(=O)N2C` [Compound 42, 4-(9-cyclopentyl-5-methyl-6-oxo-6,7,8,9-tetrahydro-5H-pyrimido[4,5-b][1,4]diazepin-2-ylamino)-3-methoxy-N-(tetrahydro-2H-pyran-4-yl)benzamide]: the IC50 is 3.16 to 10 nM. On the same count and under the same terms, next, `COc1cc(C(=O)NC2CCN(C(C)=O)CC2)ccc1Nc1ncc2c(n1)N(C1CCCC1)CCC(=O)N2C` [Compound 39, N-(1-acetylpiperidin-4-yl)-4-(9-cyclopentyl-5-methyl-6-oxo-6,7,8,9-tetrahydro-5H-pyrimido[4,5-b][1,4]diazepin-2-ylamino)-3-methoxybenzamide]: 1 to 2.51 nM.

(Values after patent US20090291938A1 (TAKEDA PHARMACEUTICAL COMPANY LIMITED, priority 2007, published 2009).)
